Assay [1] deals with T1, RPA:RAD52 protein-protein interaction (Homo sapiens, UniProt P43351).
T1 construct: made in house
T1 sequence (P43351 1-418): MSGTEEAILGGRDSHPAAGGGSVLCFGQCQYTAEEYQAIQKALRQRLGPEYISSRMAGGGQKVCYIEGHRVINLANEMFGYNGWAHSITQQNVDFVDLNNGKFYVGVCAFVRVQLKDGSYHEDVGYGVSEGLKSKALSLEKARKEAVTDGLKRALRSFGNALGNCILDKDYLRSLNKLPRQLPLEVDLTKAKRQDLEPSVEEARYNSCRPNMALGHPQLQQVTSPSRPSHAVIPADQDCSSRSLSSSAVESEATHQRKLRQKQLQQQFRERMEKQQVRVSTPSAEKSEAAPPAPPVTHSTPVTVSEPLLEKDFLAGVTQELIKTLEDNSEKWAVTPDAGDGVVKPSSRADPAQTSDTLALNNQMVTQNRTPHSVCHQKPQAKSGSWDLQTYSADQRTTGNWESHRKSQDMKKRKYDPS
Description: FluorIA (Fluorescence-based protein-protein Interaction Assay), GFP-RAD52 binding to plate-coated RPA. Conditions: polynomial curve fitting; 15 dose concentrations 0.03–500 μM, triplicate; RAD52(1–303) positive control; read-out: EC50 in FluorIA (inhibition of RPA:RAD52 PPI). The protocol: A newly developed fluorescence-based assay for detecting protein-protein interactions, FluorIA was used to identify SMIs of RPA:RAD52 PPI. The detailed FluorIA protocol is published elsewhere. Briefly, 384-well plates (Thermo Fisher Scientific, #460518) were coated with purified RPA. Then compounds or controls were added and incubated with freshly prepared GFP-RAD52. RAD52(1–303) without GFP-tag and buffer (including DMSO) only were used as controls. Then the relative fluorescence (RFU) was measured using a POLARstar OPTIMA plate reader (BMG LABTECH) on emptied plates at an excitation/emission (for eGFP) of 485/520 nm at 2500 gain setting.
Three chemical libraries the 355-member SelleckChem Kinase Inhibitor Library, the 1200-member Prestwick Chemical Library, and the 100,000-member ChemBridge library were used for the screening. The screening of the SelleckChem Kinase Inhibitor and the Prestwick libraries were performed at 10 and 100 μM each in duplicate. The screening of the ChemBridge library was conducted at 100 μM. […] The statistical criteria for a hit were fully described in Al-Mugotir et al.. Each hit was verified in triplicate at 10 and 100 μM.
The in vitro EC50 value of each hit was determined with FluorIA. The chemicals were serially diluted by two-fold increments from 0.030 to 500 μM and analyzed in triplicate with FluorIA. RAD52(1–303) was used as a positive control and buffer with DMSO was used as a negative control. Candidate SMIs with strong inhibition were purchased, and a 1D NMR analysis was carried out to verify their identities. The eleven candidates SMIs were purchased as follows: 5137134, 5246481, 52614577,5316833, 5373030, and 7623574 from Chembridge HIT2LEAD, 5989499 from Wuxi lab network, 5375405 from Aronis, quinacrine and mitoxantrone from Sigma Aldrich, and doxorubicin from LC labs. D-I03 was purchased from Molport. Their effectiveness in inhibiting the RPA:RAD52 PPI was confirmed after purchase with the FluorIA as described above (S1 Fig).
Supplementary file pone.0248941.s001.tif: S1 Fig Validation experiments of eleven hits with the FlourIA. Sixteen treatment concentrations were used (0.030–500 μM) increasing by two-fold increments of each molecule/drug obtained as a hit in HTS FluorIA. RAD52(1–303) without GFP-tag and buffer (including DMSO) only were used as controls. Percent inhibition was calculated as follows: [(RFUSMI—RFURAD52(1–303)) / (RFUDMSO—RFURAD52(1–303))]*100, where RFU is relative fluorescence unit. An average of triplicate measurements was used. The treatment points for quinacrine and doxorubicin beyond 125 μM were showing characteristics of aggregation and were not used. (TIF) Click here for additional data file.

Assay [2] concerns BRCA1-deficient UWB1.289 ovarian cancer cells (BRCA1-). Briefly: Cell viability assay (PrestoBlue, 72 h), UWB1.289. The assay is classed as cell-based. Particulars: Homo sapiens, UWB1289, estimated from the graphs. The text has this: (§1) BRCA1-deficient UWB1.289 cells corrected with wild-type BRCA1 gene (BRCA1+; closed triangle) and parental BRCA1-deficient UWB1.289 (BRCA1-; closed circle). Two PARPi-resistant cell lines derived from UWB1.289, UWB1.289.SYr12 (closed diamond) and UWB1.SYr13 (X), were also examined.
(§2) UWB1.289 (a gift from Dr. Lee Zou, Harvard Medical School, Boston, MA) were derived from a serous ovarian carcinoma with a germline BRCA1 mutation and a deletion of the wild-type allele. […] Two PARP-resistant cell lines, SYr12 and SYr13, were derived from the UWB1.289. The Mammary Epithelial growth media, along with SupplementMix solution for UWB1 cell lines, were obtained from PromoCell GmbH and mixed as described.
(§3) Cells were seeded 5 x 10^3 cells per well in 96-well plates in a 90 μL volume per well one day before treatment. Cells in 96-well plates were incubated with increasing concentrations of the compound or vehicle control (1% DMSO) for 72 hours. Each treatment plate contained nine concentrations of a compound in sextuplicate. Growth inhibition was determined using PrestoBlue reagent (Life Technologies, #A13261). Fluorescent measurements were taken using a Spectramax M5 plate reader (MDS). To assess cells’ replication in the absence of compounds as a control, six wells on each plate were treated with vehicle to be read in triplicate at the initial treatment day (T0) and at 72-hour read (T100).

The subject of assay [3] is UWB1.289 cells corrected with wild-type BRCA1 gene (BRCA1+). Briefly: Cell viability assay (PrestoBlue, 72 h), UWB1.289+BRCA1. The assay is classed as cell-based. Particulars: Homo sapiens, UWB1289, estimated from the graphs.
Excerpt: as §1, §2, §3

Assay [4] deals with UWB1.289 cells with or without BRCA1 restoration. Description: Apoptosis by cleaved PARP western blot. Conditions: 0.2 μM for three days; BRCA1-mutated vs BRCA1-restored UWB1.289. The assay is classed as cell-based, human.
Description: UWB1.289 cells with or without restoration of the BRCA1 expression were treated with 0.2 μM of mitoxantrone (MX) for three days. Olaparib (Ola) at 1 μM was used as control for the induction of apoptosis. Near EC50 concentrations were selected for each compound. After the treatment with each compound, cell lysates were prepared and cleaved PARP was detected with (A) anti-cleaved PARP antibody (Cell Signaling Technology #9541) and (B) anti-PARP antibody (Cell Signaling Technology #9542). Tubulin detected with anti-beta-tubulin antibody (Cell Signaling Technology #15115) was used as an internal control. (C) Ratios of cleaved PARP to tubulin were determined with ImageJ and graphed. Three independent experiments were performed and the mean values are shown. The bars indicate standard deviations. Statistical significance of differences was determined with Student t-test (* p<0.05 and ** p<0.01).

Structures are written as SMILES.

Consider `O=C1c2c(O)ccc(O)c2C(=O)c2c(NCCNCCO)ccc(NCCNCCO)c21` [Mitoxantrone, mitoxantrone], for which the EC50 (as a rule, the concentration giving half of the maximal effect) was 29700 nM in assay [1], 200 nM in assay [2] and 3000 nM in assay [3]. Also, the “Induction of apoptosis (cleaved PARP)” value in assay [4] was “preferentially induced apoptosis in the BRCA1-mutated UWB1.289”.
